The text below walks through data of patent publication US20240376163A1, “PEPTIDE FOR INHIBITING CALCINEURIN AND USE THEREOF” (Seoul National University R&DB Foundation, priority 2023, published 2024).

One assay deals with p38a (Homo sapiens, UniProt Q16539). The assay can be described thus: In vitro kinase assay. Type of assay: biochemical. The conditions noted are these: purified GST-tagged peptide. The protocol:
(§1) Purified GST-tagged peptides were used for the in vitro kinase assay using activated recombinant kinase obtained from Proqinase GmbH (Freiburg, Germany). Kinase reactions were induced in reaction buffer (50 mM HEPES-NaOH, pH 7.5, 3 mM MgCl2, 3 mM MnCl2, 3 μM sodium orthobanadate, 1 mM dithiothreitol, 50 μM unlabeled ATP, 5 μCi 32P-γ-ATP) for 1 hour at 30° C. The reaction was stopped by the addition of 5× sample buffer, and proteins were isolated using SDS-PAGE. The gels were stained with Coomassie Brilliant Blue, dried, and developed on X-ray film.

A further assay deals with T1, JNK1 (Homo sapiens, UniProt P45983).
T1 construct: purchased Proqinase GmbH (Freiburg, Germany)
T1 sequence (P45983 whole entry): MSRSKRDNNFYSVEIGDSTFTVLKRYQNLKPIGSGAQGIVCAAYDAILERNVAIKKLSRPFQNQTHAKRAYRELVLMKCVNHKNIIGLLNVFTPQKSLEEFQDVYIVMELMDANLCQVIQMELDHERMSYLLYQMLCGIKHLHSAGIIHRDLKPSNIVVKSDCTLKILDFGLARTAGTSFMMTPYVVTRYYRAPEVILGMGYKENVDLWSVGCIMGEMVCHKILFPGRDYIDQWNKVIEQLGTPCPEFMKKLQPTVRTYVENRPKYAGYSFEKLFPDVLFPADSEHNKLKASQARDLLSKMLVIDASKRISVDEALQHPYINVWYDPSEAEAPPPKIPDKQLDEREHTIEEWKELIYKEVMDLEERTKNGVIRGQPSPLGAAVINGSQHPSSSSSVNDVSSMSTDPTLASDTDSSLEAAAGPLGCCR
The assay can be described thus: In vitro kinase assay. Type of assay: biochemical. Particulars: purified GST-tagged peptide. How it is done:
as §1

Another assay addresses T2, ERK2 (Homo sapiens, UniProt P28482).
T2 construct: purchased Proqinase GmbH (Freiburg, Germany)
The assay can be described thus: In vitro kinase assay. The assay is classed as biochemical. Particulars: purified GST-tagged peptide. The protocol:
as §1

The next assay has as its system tNFATC2. The assay can be described thus: Confocal microscopy of nuclear-localized tNFATC2 in Jurkat T cells. Particulars: activated Jurkat T cells. The assay is classed as cell-based. How it is done: Jurkat T cells were transfected with pCAG-EGFP-tNFATC2-IRES-mCherry-peptide by electroporation. Two days later, these cells were pretreated with […] for 30 min. Afterwards, they were treated with 40 nM PMA and 1 μM ionomycin for 4 hours under culture conditions. Nuclei were stained by treating these cells with 10 μg/ml Hoechst 33342 (Invitrogen, Waltham, MA, USA) before imaging with a confocal laser scanning microscopy (Nikon, Tokyo, Japan). Colocalization analysis of […] and Hoechst was performed with ImageJ and corresponding plug-in JACoP to measure the Manders coefficient (Manders, E. M. et al., J. Cell Sci. 103, 857-862 (1992), Bolte, J. Microsc. 224, 213-232 (2006)).

A further assay concerns His6-tagged CNA. The assay can be described thus: In vitro peptide competition assay. The assay is classed as binding. Particulars: VIVIT 15-mer and CABIN1-L-1 peptide, molar ratio 1:50 to 1:400. How it is done: In FIG. 4A, an in vitro peptide competition assay was performed using VIVIT 15-mer and CABIN1-L-1 peptide in a dose-dependent manner. The molar ratio of GST-tagged peptide to competing peptide ranged from 1:50 to 1:400. In FIG. 4B, a mammalian two-hybrid assay was performed using VP16 AD-CNAβ2 and GAL4 DBD-peptide in HEK293T cells treated or not-treated with 1 μM ionomycin. The pM empty vector was used as a negative control. In FIG. 4C, a calcineurin cellular activity assay was performed using Jurkat T cells expressing HA-mCherry-tagged peptides. Jurkat T cells expressing only HA-mCherry were used as negative controls, and cells treated with FK506 were used as positive controls. […] Purified GST was used as a negative control. All experiments were repeated three times, and data were expressed as mean±standard deviation. Statistical differences were determined using one-way analysis of variance. * p<0.05, NS: no statistical significance, NC: negative control.

The next assay concerns Jurkat T cells. The assay can be described thus: Real-time quantitative PCR of T-cell activation genes in Jurkat T cells. The assay is classed as cell-based. How it is done: Jurkat T cells were collected by QIAzol Lysis Reagent (Qiagen) to extract total RNA. cDNA was reverse transcribed from the isolated RNA using AMV Reverse Transcriptase and random hexamers. Real-time quantitative PCR for each cDNA was performed using TB Green® Premix Ex Taq™ (TaKaRa, Kusatsu, Japan) in the CFX Connect Real-time PCR Detection System (Bio-Rad, Hercules, CA, USA), and normalized to expression of 18S rRNA or GAPDH.

The next assay concerns the target T3, CNAβ2 (Homo sapiens, UniProt P16298).
T3 construct: expressed in transfected cells; host or cells: HEK293T
The assay can be described thus: Mammalian two-hybrid assay (GAL4 DBD-peptides, VP16 AD-CNAβ2, pG5-luc) in HEK293T cells. Particulars: HEK293T. The assay is classed as cell-based. The protocol: To measure the transcriptional activity of NFAT, Jurkat T cells were cotransfected with GST-tagged peptides and NFAT-luc by electroporation. After 24 hours, the cells were pretreated with 0.5 μM FK506 for 1 hour and then treated with 40 nM PMA and 1 μM ionomycin for 8 hours. For mammalian two-hybrid assay, HEK293T cells were cotransfected with GAL4 DBD-tagged CABIN1, VIVIT, chimeric, and substituted peptides, VP16 activation domain-tagged CNAβ2, and pG5-luc (a luciferase reporter plasmid containing the GAL4 reaction promoter) for 24 hours. Harvested cells were lysed with luciferase assay lysis buffer (17 mM KH2PO4, 183 mM K2HPO4, pH 7.8, 0.2% [v/v] Triton X-100) and sonicated briefly. The luciferase activity against each cell lysate was measured using Infinite M200 (Tecan, Männedorf, and Switzerland). In addition, the expression level of the transfected protein was confirmed by Western blotting.

A further assay has as its system NFATC2. The assay can be described thus: NFAT mobility shifting assay in Jurkat T cells. The assay is classed as cell-based. The conditions noted are these: PMA and ionomycin. How it is done: In FIG. 2A, a luciferase reporter assay was performed to measure NFAT transcriptional activity. Jurkat T cells expressing GST-tagged peptides were treated with PMA and ionomycin for activation. Jurkat T cells expressing only GST were used as negative controls, and cells treated with 0.5 μM FK506 were used as positive controls (n=3). In FIG. 2B, an NFAT mobility shifting assay was performed using Jurkat T cells expressing HA-mCherry-tagged peptides. For dephosphorylation of NFATC2, Jurkat T cells were treated with PMA and ionomycin for 2 hours. In FIG. 2C, the hyperphosphorylated and hypophosphorylated NFATC2 of FIG. 2B was measured using ImageJ, and the hypo/hyper ratio was calculated (n=7). In FIG. 2D, snapshot images of the indicated peptides and activated Jurkat T cells expressing tNFATC2 were obtained using a confocal microscope. Expression and intracellular localization of peptides and tNFATC2 are indicated by mCherry (red) and EGFP (green), respectively. […] In FIG. 2E, tNFATC2 located in the nucleus was measured by calculating a ratio at which Hoechst (M1) and EGFP (M2) were present together. […] The data were repeated independently as many times as described and are expressed as means±standard deviation. Statistical differences were determined using two-sided Student's t-test (A, C) or one-way analysis of variance (E). *** p<0.001, NC: negative control. […]

T3 sequence (P63098 2-170 partner limits assumed, other chains not shown): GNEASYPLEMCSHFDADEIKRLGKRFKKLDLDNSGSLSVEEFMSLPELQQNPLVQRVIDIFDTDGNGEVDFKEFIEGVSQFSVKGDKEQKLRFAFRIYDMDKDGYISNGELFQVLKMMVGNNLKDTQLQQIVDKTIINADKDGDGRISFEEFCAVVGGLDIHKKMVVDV
Sequence of p38a (Q16539 whole entry): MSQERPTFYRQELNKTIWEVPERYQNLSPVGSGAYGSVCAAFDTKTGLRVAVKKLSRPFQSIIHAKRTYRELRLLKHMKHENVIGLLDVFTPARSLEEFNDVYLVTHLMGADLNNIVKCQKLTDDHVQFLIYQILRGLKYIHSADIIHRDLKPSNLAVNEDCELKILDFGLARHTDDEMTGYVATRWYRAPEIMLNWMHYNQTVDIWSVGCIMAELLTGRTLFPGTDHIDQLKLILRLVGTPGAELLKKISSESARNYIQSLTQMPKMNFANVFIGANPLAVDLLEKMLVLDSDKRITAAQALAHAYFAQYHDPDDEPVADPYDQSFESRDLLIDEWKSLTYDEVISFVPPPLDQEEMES
T2 sequence (P28482 whole entry): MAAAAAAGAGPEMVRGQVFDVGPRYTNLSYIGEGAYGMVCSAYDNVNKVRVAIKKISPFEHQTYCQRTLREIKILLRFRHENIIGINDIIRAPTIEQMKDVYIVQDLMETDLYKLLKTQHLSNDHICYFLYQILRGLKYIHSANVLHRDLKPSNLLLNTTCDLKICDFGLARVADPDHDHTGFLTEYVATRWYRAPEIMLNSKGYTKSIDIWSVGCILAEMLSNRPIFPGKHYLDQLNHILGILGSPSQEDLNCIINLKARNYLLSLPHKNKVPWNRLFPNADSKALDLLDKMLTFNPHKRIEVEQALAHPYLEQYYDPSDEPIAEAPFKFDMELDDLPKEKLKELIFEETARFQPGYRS

As to PEITVTPPTP [CABIN1-L-1-2], the “phosphorylation by p38a” value with p38a is on record as “phosphorylate”. Moreover, the “phosphorylation by JNK1” value in the assay with JNK1 is given as “phosphorylate”. Also, the “phosphorylation by ERK2” value in the assay with ERK2 is given as “phosphorylate”. Moreover, the “proportion of nuclear-localized tNFATC2” value in the assay on tNFATC2 is recorded as “slightly higher”. Also, the “competition for CNA binding” value in the assay with His6-tagged CNA was “dose-dependently interfered with the interaction between GST-tagged VIVIT peptide and His6-tagged CNA”. In the assay on Jurkat T cells, the “RNA levels of T-cell activation genes by qRT-PCR” value is recorded as “reduced RNA levels of these genes more effectively than VIVIT peptides”. For the same molecule, in the assay with CNAβ2 (1 μM ionomycin), the “effect of ionomycin treatment on interaction with CNA” value was “did not affect the interaction”. The “binding to CNA” value with CNAβ2 (GAL4 DBD-tagged peptides, VP16 activation domain-tagged CNA) is listed as “still bound to CNA”. Besides, the “NFATC2 band shift (dephosphorylation)” value in the assay with NFATC2 is recorded as “significantly inhibited NFATC2 band shift”.

For `C=CC[C@@H]1/C=C(\C)C[C@H](C)C[C@H](OC)[C@H]2O[C@@](O)(C(=O)C(=O)N3CCCC[C@H]3C(=O)O[C@H](/C(C)=C/[C@@H]3CC[C@@H](O)[C@H](OC)C3)[C@H](C)[C@@H](O)CC1=O)[C@H](C)C[C@@H]2OC` [FK506, Tacrolimus, reference compound], in the assay with tNFATC2, the “proportion of nuclear-localized tNFATC2” value is “lowest”. The “NFATC2 band shift (dephosphorylation)” value in the assay on NFATC2 is recorded as “significantly inhibited NFATC2 band shift”.
